These results are taken from PMC12376758, “Restoration of CB1 receptor function in hippocampal GABAergic neurons rescues memory deficits in Huntington’s disease models” (Translational Neurodegeneration, 2025).

Structures are written as SMILES. Read-outs that look alike come from different tables or passages of the source.

The term IC50 denotes the concentration at which inhibition is half-maximal.

The target in one assay is T1, CB1R (Mus musculus, UniProt P47746).
T1 construct: from tissue
Kind of assay: biochemical. It is filed as binding. The following applies: for Fraction high: CP55940 inhibition curve; for IC50: CP55940 vs [3H]SR141716A 2 nmol/L.

Another assay relates to aged mice. Also on record: method as in PMID 16221768, PMID 36697430. Conditions: chronic low-dose; cited from earlier work.
A further assay concerns mHtt. The arrangement: method as in PMID 20929960. The following applies: pharmacological activation of CB1R, HD mouse models; cited from earlier work.

T1 sequence (P47746 whole entry): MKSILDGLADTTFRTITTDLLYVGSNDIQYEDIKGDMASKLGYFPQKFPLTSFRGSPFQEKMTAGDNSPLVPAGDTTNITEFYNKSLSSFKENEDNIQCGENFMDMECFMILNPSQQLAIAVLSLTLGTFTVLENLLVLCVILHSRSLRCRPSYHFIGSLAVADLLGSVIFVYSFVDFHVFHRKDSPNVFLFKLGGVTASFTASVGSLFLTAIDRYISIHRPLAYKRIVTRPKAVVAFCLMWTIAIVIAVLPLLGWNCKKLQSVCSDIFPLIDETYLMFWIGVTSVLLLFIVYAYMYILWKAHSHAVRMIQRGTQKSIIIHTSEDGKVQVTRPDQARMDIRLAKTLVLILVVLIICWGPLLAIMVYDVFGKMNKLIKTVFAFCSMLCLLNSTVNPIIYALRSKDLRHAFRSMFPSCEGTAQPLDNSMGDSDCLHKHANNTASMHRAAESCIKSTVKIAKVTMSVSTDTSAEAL

With `CCCCCCC(C)(C)c1ccc([C@@H]2C[C@H](O)CC[C@H]2CCCO)c(O)c1` [CP55940], the Fraction high is 0.6378^$$$ on CB1R (hippocampal membranes of R6/1 WIN (1 mg/kg) mice), 0.4654 on CB1R (hippocampal membranes of WT WIN (1 mg/kg) mice) and 0.4696 on CB1R (hippocampal membranes of WT veh mice). The concentration for half-maximal inhibition (IC50) at CB1R (IC50 (single binding site), hippocampal membranes of R6/1 veh mice) is 0.0644 ± 0.0121 µM; at CB1R (IC50, first value (high-affinity site), hippocampal membranes of R6/1 WIN (1 mg/kg) mice) it was 0.0109 ± 0.016 µM; against CB1R (IC50, first value (high-affinity site), hippocampal membranes of WT WIN (1 mg/kg) mice) it was 0.018 ± 0.0167 µM; at CB1R (IC50, first value (high-affinity site), hippocampal membranes of WT veh mice), 0.0232 ± 0.0188 µM; on CB1R (read-out: IC50, second value (low-affinity site), hippocampal membranes of R6/1 WIN (1 mg/kg) mice) it was 0.382 µM; on CB1R (read-out: IC50, second value (low-affinity site), hippocampal membranes of WT WIN (1 mg/kg) mice) it was 0.85 µM. The half-maximal inhibitory concentration (IC50) at CB1R (read-out: IC50, second value (low-affinity site), hippocampal membranes of WT veh mice) was 1.14 µM.

For `CCCCCc1cc(O)c2c(c1)OC(C)(C)[C@@H]1CCC(C)=C[C@@H]21` [THC, Δ9-tetrahydrocannabinol], in the assay on aged mice, the cognitive function entry is “improves”, the cortical spine density entry is given as “increasing” and the synaptic protein expression result is listed as “increasing”. Also, in the assay on mHtt, the mHtt accumulation entry was “alleviates”.
